Data from ChEMBL document CHEMBL1862790, “Optimisation of fenarimol series for the treatment of Chagas disease”.
pIC50: −log10 of the molar value. “And” between values parts separate entries of the source, which are not always exact repeats. Equal values may be shown once.

Experiments:
Trypanosoma cruzi [1] = assay: microbe, parasite or virus in culture; type: functional, organism-based, Tulahuen LacZ, Clone C4
[2] = DNDI: Cytotoxicity against L-6 rat myoblasts from skeletal muscle cells; details: L6 rat skeletal muscle myoblast cells
Trypanosoma cruzi [3] = assay: microbe, parasite or virus in culture; type: functional, Tulahuen LacZ, Clone C4
[4] = Trypanosoma cruzi, Tulahuen LacZ, Clone C4

| SMILES | pIC50 (Trypanosoma cruzi [1]; [4]) | IC90 (Trypanosoma cruzi [3]; [4]) [nM] | pIC50 (Trypanosoma cruzi [1]) | IC90 (Trypanosoma cruzi [3]) | IC50 (Trypanosoma cruzi [1]) | pIC50 ([2]; IC50) | pIC50 [2] |
| --- | --- | --- | --- | --- | --- | --- | --- |
| OC(c1cncnc1)(c1ccccc1Cl)c1ccccc1Cl | 5.97 |  |  |  |  | < 4.00 |  |
| Cc1ccccc1C(O)(c1ccc(Cl)cc1)c1cccnc1 (configuration not stated) | 6.43 | 2780 |  |  |  |  | 4.21 |
| CC(C)CC(O)(c1ccc(Cl)cc1)c1cncnc1 (configuration not stated) | 5.94 | 10000 |  |  |  | < 4.00 |  |
| OC(c1ccc(Cl)cc1)(c1cccnc1)c1ccc(Br)cc1F (configuration not stated) | 7.57 | 120 |  |  |  |  |  |
| OC(c1ccc(Cl)cc1)(c1cccnc1)c1ccc(Cl)cc1F (configuration not stated) | 7.85 | 31 | 7.72 | 32 nM |  |  | < 4.00 |
| OC(c1ccc(C(F)(F)F)cc1)(c1cncnc1)c1ccccc1Cl (configuration not stated) | 6.60 | 20000 |  |  |  | < 4.00 |  |
| CC1(C)CC(=O)C(C(=O)c2ccc(Cl)cc2Cl)C(=O)C1 | 4.23 |  |  |  |  | 4.12 |  |
| CCCCC(O)(c1ccc(Cl)cc1)c1cnccn1 (configuration not stated) | 6.48 | 3000 |  |  |  | < 4.00 |  |
| Cc1noc(C)c1C(=O)N1CCC(NC(c2ccc(C(F)(F)F)cc2)c2cccnc2)CC1 (configuration not stated) | 7.70 |  | 7.44 | 46 nM and 96 nM |  | < 4.00 |  |
| CC(C)c1ccc(C(O)(c2ccc(C(F)(F)F)cc2)c2cccnc2)cc1 (configuration not stated) | 8.70 | 7 |  |  |  |  |  |
| OC(c1ccc(Cl)cc1)(c1cccnc1)c1ccc(Cl)s1 (configuration not stated) | 7.11 |  |  |  |  | 4.30 |  |
| CC(C)(C)NC(=O)N1CCC(NC(c2ccc(C(F)(F)F)cc2)c2cccnc2)CC1 (configuration not stated) | 7.32 | 402 | 7.21 | 207 nM |  | < 4.00 |  |
| OC(c1cncnc1)(c1ccccn1)c1ccccc1Cl (configuration not stated) | 5.13 | 15500 |  |  |  | < 4.00 |  |
| CC(C)C(=O)N1CCN(C(c2ccc(Cl)cc2)c2cncnc2)CC1 (configuration not stated) |  |  | 6.17 | > 1000 nM |  |  |  |
| CS(=O)(=O)N1CCC(CNC(c2ccc(C(F)(F)F)cc2)c2cnccn2)CC1 (configuration not stated) |  |  | 6.44 | 910 nM |  |  |  |
| OC(c1cncnc1)(c1ccccc1F)c1ccccc1Cl (configuration not stated) | 5.58 | 9370 |  |  |  | < 4.00 |  |
| O=C(C1CC1)N1CCN(C(c2cncnc2)c2ccc(Cl)cc2F)CC1 (configuration not stated) | 6.75 |  | 6.77 | 306 nM and 614 nM |  | < 4.00 |  |
| CS(=O)(=O)N1CCN(C(c2cccnc2)c2ccc(Cl)cc2F)CC1 (configuration not stated) [listing 1 of 2 here] |  |  | 7.46 and 7.34 | 160 nM and 110 nM |  | < 4.00 |  |
| O=C(C1CC1)N1CCC(NC(c2ccc(C(F)(F)F)cc2)c2cnccn2)CC1 (configuration not stated) |  |  | 6.19 | > 1000 nM |  |  |  |
| CC(C)Oc1ccccc1C(O)(c1ccc(Cl)cc1)c1cccnc1 (configuration not stated) | 6.35 | 820 |  |  |  |  |  |
| OC(c1ccc(Cl)cc1)(c1cccnc1)c1cncnc1 (configuration not stated) | 5.82 | 59000 |  |  |  | < 4.00 |  |
| O=C(NC1CCN(C(c2ccc(C(F)(F)F)cc2)c2cnccn2)CC1)C1CC1 (configuration not stated) | 6.18 | > 1000 | 6.24 | 1290 nM |  | < 4.00 |  |
| OC(c1cccnc1)(c1cccc(F)c1)c1ccccc1Cl (configuration not stated) | 6.25 | > 1000 | 6.12 |  |  |  | < 4.00 |
| OC(c1ccc(Cl)cc1)(c1cccnc1)c1cnc(Cl)nc1 (configuration not stated) |  |  | 6.79 and 6.32 | 339 nM and 850 nM |  | < 4.00 |  |
| OC(c1ccc(Cl)cc1)(c1cccnc1)c1ccccc1F (configuration not stated) | 7.27 | 152 | 7.46 | 179 nM |  |  | < 4.00 |
| N#Cc1ccc(C(c2cccnc2)N2CCC(NC(=O)c3ccccc3C(F)(F)F)CC2)cc1 (configuration not stated) | 8.35 | 12 | 8.40 | 15.5 nM |  | < 4.00 |  |
| O=[N+]([O-])c1ccc(O/N=C/c2cc(Br)c(O)c(Br)c2)c([N+](=O)[O-])c1 | 4.62 |  |  |  |  |  | 4.08 |

| SMILES | pIC50 (Trypanosoma cruzi [1]; [4]) | IC90 (Trypanosoma cruzi [3]; [4]) [nM] | pIC50 (Trypanosoma cruzi [1]) | IC90 (Trypanosoma cruzi [3]) | IC50 (Trypanosoma cruzi [1]) | pIC50 ([2]; IC50) | pIC50 [2] |
| --- | --- | --- | --- | --- | --- | --- | --- |
| N#Cc1ccc(C(c2cccnc2)N2CCC(NC(=O)c3c(F)cccc3F)CC2)cc1 (configuration not stated) | 7.67 | 48 | 7.73 | 55.5 nM |  | < 4.00 |  |
| OC(c1ccc(Cl)cc1)(c1cccnc1)c1ccc(Cl)cc1Cl (configuration not stated) | 7.82 | 52.2 |  |  |  |  | 4.27 |
| OC(c1cccnc1)(c1cncnc1)c1ccccc1Cl (configuration not stated) | 5.11 | 10000 |  |  |  | < 4.00 |  |
| OC(c1ccccc1)(c1cncnc1)c1ccccc1Cl (configuration not stated) | 5.60 | 70000 |  |  |  | < 4.00 |  |
| CS(=O)(=O)N1CCN(C(c2cccnc2)c2ccc(Cl)cc2F)CC1 (configuration not stated) [listing 2 of 2 here] |  |  | 7.07 and 7.34 | 380 nM and 167 nM |  |  |  |
| Cc1cc(C(=O)NC2CCN(C(c3ccc(C#N)cc3)c3cccnc3)CC2)n(C)n1 (configuration not stated) | 7.24 | 130 | 7.33 | 97.5 nM |  | < 4.00 |  |
| N#Cc1ccc(C(O)(c2ccc(C(F)(F)F)cc2)c2cccnc2)cc1 (configuration not stated) | 7.92 | 32 | 7.74 | 33 nM |  | 4.20 |  |
| O=C(C1CC1)N1CCC(NC(c2ccc(Cl)cc2)c2cccnc2)CC1 (configuration not stated) |  |  | 6.96 |  |  |  |  |
| OC(c1ccc(Cl)cc1)(c1ccccn1)c1ccccc1Cl (configuration not stated) | 4.56 | 90000 |  |  |  |  | < 4.00 |
| Cc1ncsc1C(=O)N1CCC(NC(c2ccc(C(F)(F)F)cc2)c2cccnc2)CC1 (configuration not stated) | 7.17 | 218 | 7.24 | 180 nM |  | < 4.00 |  |
| CS(=O)(=O)N1CCN(C(c2cncnc2)c2ccc(Cl)cc2F)CC1 (configuration not stated) | 6.35 | 724 | 6.41 | 850 nM |  | < 4.00 |  |
| N#Cc1cccc(OC2CCN(C(c3ccc(C(F)(F)F)cc3)c3cccnc3)CC2)c1 (configuration not stated) | 8.12 |  | 8.08 | 12.5 nM and 29 nM |  |  |  |
| OC(c1ccc(Cl)cc1)(c1cccnc1)c1cccc(F)c1 (configuration not stated) | 7.00 | 330 |  |  |  |  |  |
| COc1ccc(C(O)(c2cncnc2)C2CC2)cc1 (configuration not stated) | 4.68 | 62500 |  |  |  |  | < 4.00 |
| OC(c1ccc(F)cc1)(c1ccc(Cl)cc1)c1cncnc1 (configuration not stated) | 6.19 |  |  |  |  | < 4.00 |  |
| OC(c1ccc(Cl)cc1)(c1cncnc1)c1cccc(F)c1 (configuration not stated) | 6.08 | 1900 |  |  |  | < 4.00 |  |
| OC(c1ccc(Cl)cc1)(c1cncnc1)c1cccc(Cl)c1 (configuration not stated) | 6.29 | 10000 |  |  |  | 4.24 |  |
| CC(C)C(O)(c1ccc(Cl)cc1)c1cncnc1 (configuration not stated) | 5.65 | 21000 |  |  |  | < 4.00 |  |
| Clc1ccc(C(c2ccc(Cl)cc2)c2cccnc2)cc1 | 7.10 | 1600 |  |  |  |  |  |
| C#CCOC(=O)[C@@H](C)Oc1ccc(Oc2ncc(Cl)cc2F)cc1 [CLODINAFOP PROPARGYL] | 4.17 |  |  |  |  | < 4.00 |  |
| OC(c1ccc(Cl)cc1)(c1cncnc1)c1ccccc1Cl (configuration not stated) [FENARIMOL] | 6.60 | 560 |  |  |  |  |  |
| CC(Oc1ccc(Oc2nc3ccc(Cl)cc3o2)cc1)C(=O)O (configuration not stated) [FENOXAPROP] | < 4.00 |  |  |  |  |  | < 4.00 |
| CNC1=C(c2cccc(C(F)(F)F)c2)C(=O)C(c2ccccc2)O1 (configuration not stated) [FLURTAMONE] | 4.26 |  |  |  |  |  | 4.08 |
| CON(C)C(=O)Nc1ccc(Br)cc1 [METOBROMURON] | 4.14 |  |  |  |  |  | < 4.00 |
| CC(Oc1ccc(Cl)cc1Cl)C(=O)O (stereo not drawn) [RAC-DICHLORPROP] | 4.13 |  |  |  |  |  | < 4.00 |
| Oc1cc(Cl)ccc1Oc1ccc(Cl)cc1Cl [TRICLOSAN] | 4.28 |  |  |  |  |  | 4.08 |

Further lines, with some results ahead:

| pIC50 (Trypanosoma cruzi [1]; [4]) | IC90 (Trypanosoma cruzi [3]; [4]) [nM] | pIC50 (Trypanosoma cruzi [1]) | IC90 (Trypanosoma cruzi [3]) | IC50 (Trypanosoma cruzi [1]) | SMILES | pIC50 ([2]; IC50) | pIC50 [2] |
| --- | --- | --- | --- | --- | --- | --- | --- |
| 4.84 |  |  |  |  | [O-][n+]1cncc(C(O)(c2ccc(Cl)cc2)c2ccccc2Cl)c1 (configuration not stated) | < 4.00 |  |
| 7.05 | 10000 |  |  |  | COC(c1ccc(Cl)cc1)(c1cccnc1)c1ccccc1Cl (configuration not stated) |  |  |
| 4.64 | 66000 |  |  |  | OC(c1ccc(Cl)cc1)(c1ncccn1)c1ccccc1Cl (configuration not stated) | < 4.00 |  |
| 6.77 | 1000 |  |  |  | FC(c1ccc(Cl)cc1)(c1cccnc1)c1ccccc1Cl (configuration not stated) | 4.22 |  |
| 6.48 | 5230 |  |  |  | Cc1cccc(C(O)(c2ccc(Cl)cc2)c2cncnc2)c1 (configuration not stated) | 4.17 |  |
| 7.15 | 76000 |  |  |  | OC(c1ccc(Cl)cc1)(c1cncnc1)c1cccs1 (configuration not stated) | < 4.00 |  |
| < 6.00 |  |  |  |  | CON=C(Cc1ccc(OC)cc1)c1ccc(OC)c(OC)c1OC | 4.03 |  |
| < 5.00 | 10000 |  |  |  | O=C(c1ccc(Cl)cc1)c1ccccc1Cl | < 4.00 |  |
|  | 960 |  | 820 nM and 930 nM and 520 nM | 490 nM [middle of 4 runs] | CC(=O)N1CCN(C(c2ccc(Cl)cc2)c2cccnc2)CC1 (configuration not stated) | < 4.00 |  |
| < 6.00 |  |  |  |  | CON=C(Cc1ccccc1)c1ccc(OC)cc1 | < 4.00 |  |
| < 6.00 |  |  |  |  | CON=C(Cc1ccccc1C(=O)O)c1ccc(Cl)cc1 | < 4.00 |  |
| < 5.00 | 10000 |  |  |  | O=C(c1ccc(F)cc1)c1ccc(Cl)cc1 | < 4.00 |  |
| < 5.00 | 10000 |  |  |  | CON=C(c1ccc(Cl)cc1)c1ccc(Cl)cc1 | < 4.00 |  |
|  |  | 7.52 and 7.11 | 100 nM and 320 nM |  | NC(=O)c1cccc(C(O)(c2ccc(Cl)cc2)c2cccnc2)c1 (configuration not stated) | < 4.00 |  |
| < 6.00 |  |  |  |  | CON=C(c1ccc(Cl)cc1)C1(c2ccccc2C(=O)O)CC1 | < 4.00 |  |
| 6.41 | 60000 |  |  |  | COc1ccc(C(O)(c2cncnc2)c2ccccc2Cl)cc1 (configuration not stated) | 4.15 |  |
| 6.85 | 820 |  |  |  | OC(c1ccc(Cl)cc1)(c1cncnc1)c1ccccc1F (configuration not stated) | < 4.00 |  |
| < 6.00 |  |  |  |  | OC(Cc1ccc(Cl)nc1)c1ccc(Cl)cc1 (configuration not stated) | < 4.00 |  |
| < 6.00 |  |  |  |  | CON=C(Cc1ccccc1)c1ccc(F)cc1 |  |  |
| 4.33 | 93000 |  |  |  | O/N=C(\c1ccc(Cl)cc1)c1ccccc1Cl | 4.26 |  |
| 5.97 | 80000 |  |  |  | Clc1ccc(C(c2cncnc2)c2ccccc2Cl)cc1 (configuration not stated) | < 4.00 |  |
| 5.94 | 8700 |  |  |  | COc1ccccc1C(O)(c1ccc(Cl)cc1)c1cncnc1 (configuration not stated) | < 4.00 |  |
| 6.36 | 7900 |  |  |  | OC(c1ccc(Cl)cc1)(c1cnccn1)c1ccccc1Cl (configuration not stated) | < 4.00 |  |
| 6.34 |  |  |  |  | OC(c1ccccc1)(c1ccc(Cl)cc1)c1cncnc1 (configuration not stated) | < 4.00 |  |
